Test results from PMC7077990 (eLife, 2020).

Assays:
[1] = target: T1, mitochondrial pyruvate carrier MPC (Mus musculus, UniProt P63030+Q9D023); test: mitochondrial pyruvate uptake in intact astrocytes, mito-PyronicSF fluorescence; assay type: cell-based; conditions: 3 mM extracellular pyruvate; KRH buffer pH 7.4; 22–25°C
T1 construct: gene Mpc1; native carrier in intact cultured cortical astrocytes; read out as mitochondrial pyruvate uptake with mito-PyronicSF; subunit composition not determined
T1 sequence (P63030 2-109): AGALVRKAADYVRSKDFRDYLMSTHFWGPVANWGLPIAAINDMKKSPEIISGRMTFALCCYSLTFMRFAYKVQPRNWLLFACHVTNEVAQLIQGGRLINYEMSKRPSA
T1 sequence (Q9D023 1-127): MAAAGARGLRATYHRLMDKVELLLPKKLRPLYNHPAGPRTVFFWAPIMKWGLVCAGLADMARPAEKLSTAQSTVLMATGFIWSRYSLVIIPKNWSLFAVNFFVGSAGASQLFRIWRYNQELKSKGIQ

[2] = target: T1, mitochondrial pyruvate carrier MPC; test: as above; assay type: cell-based; conditions: 3 mM extracellular pyruvate; KRH buffer pH 7.4; 22–25°C; remark: listed apart in the source

Question: With N#C/C(=C\c1cn(-c2ccccc2)c2ccccc12)C(=O)O [UK-5099] as the molecule, how does the “% uptake inhibition at 10 μM” value [1] read?
Answer: The value was 69%.

Question: For CN(CCOc1ccc(CC2SC(=O)NC2=O)cc1)c1ccccn1 (centres unmarked) [rosiglitazone], which “% uptake inhibition at 30 μM” value [2] is on record?
Answer: Its value is 67%.
